According to patent US20060106099A1, “Novel inhibitors of ubiquitin isopeptidases” (priority 2002, published 2006):
Read-outs that look alike come from different tables or passages of the source.

Experiments:
ubiquitin isopeptidases [1] = assay: In vivo isopeptidase activity after treatment of RKO cells, Ub-PEST; assay type: cell-based, human; details: 6 h
Experimental: Isopeptidase Assay. It was hypothesized that the punaglandins would inhibit ubiquitin-isopeptidase activity of the proteasome pathway as does the prostaglandin, Δ^12-PGJ2 (1), but with greater potency because of the chlorinated C-10. To validate this theory, cellular isopeptidase enzymatic activity was measured in vitro after treatment with individual punaglandins, PNG 2 (6), PNG 3 (7), and Z-PNG 4 (9) and in vivo after individual treatment with PNG 4 (8) and PNG 6 (10). This activity was determined utilizing the simple isopeptidase substrate, ubiquitin-PEST (Ub-PEST), a full/length ubiquitin (Ub) molecule fused with an 18-amino acid C-terminal peptide extension that most isopeptidases use as a substrate. The polypeptide extension contains regions rich in Pro (P), Glu (E), Ser (S), and Thr (T) residues called PEST motifs that are responsible for rapid degradation of these and other unstable proteins. Ub isopeptidases specifically cleave this peptide extension, yielding free, full-length Ub. Both the fused Ub-PEST (10.5 kDa) and the cleaved, free Ub (8.5 kDa) can be observed via immunochemical detection.
In vivo Isopeptidase Activity. To investigate whether punaglandins can inhibit isopeptidase activity in vivo, isopeptidase activity was analyzed after punaglandin treatment of RKO cells. PNG 4 (8) and PNG 6 (10) were selected for in vivo investigation because they differ only in enone functionality, where (8) is a dienone and (10) an enone. RKO cells were incubated with 1 μM, 4 μM, or 7 μM of PNG 4 (8) and PNG 6 (10). […] As a positive control, cells were treated with a known isopeptidase inhibitor, shikoccin (SK). After 6 h drug treatment, cells were lysed and protein concentration adjusted to 0.3 mg/mL per sample. Each sample was subsequently incubated with 50 μg/mL of Ub-PEST. The reaction was terminated after 20 min and the respective amounts of Ub-PEST (10 kDa) and free Ub product (8.5 kDa) were determined by SDS-PAGE fractionation.

[2] = test system: cell lines with Wild type p53; details: cited from earlier work
HCT 116 −/− cells [3] = assay: MTT cell viability assay, HCT 116 p53 −/− cells; details: read-out: Cytotoxic Potency (EC50) HCT −/−; 48 h, MTT
Experimental: (§1) Cell viability was measured with MTT reagent as described in materials and methods.
(§2) Cell viability was detected by the MTT assay. Briefly, 1×10^5 cells were incubated per well of a sterile, 96-well assay plate with 0-60 μM of test compounds for 48 hours. MTT reagent was added to each well, final concentration of 0.5 mg/mL, and incubated for an additional 3 hours. The media was aspirated and remaining MTT reagent from each well and added 100 μL of HCl:isopropanol (1:24). The absorbance of each sample was measured at 405 nm.

ubiquitin isopeptidases [4] = assay: Reversibility of isopeptidase inhibition in cell lysates, z-LRGG-AMC, dialysis; assay type: biochemical; details: 100 μM
Experimental: FIG. 5 Reversibility of isopeptidase inhibition by Δ12-PGJ2. Cell lysates (0.5 mg/mL) were treated with DMSO vehicle or 100 μM .12-PGJ2 for 1 hour,25° C. The treated lysates were divided into two aliquots. One aliquot was immediately analyzed for isopeptidase activity by incubating with z-LRGG-AMC as previously described (Pre-Dialysis). The second aliquot was dialyzed by washing with 3 volumes of assay buffer on a centricon YM-30 column, followed by analysis for isopeptidase activity by incubating with z-LRGG-AMC (Post-Dialysis).
Δ-12-PGJ2 irreversibility was determined. Cell lysates were incubated with vehicle or 100 μM test compound and isopeptidase activity was measured fluorimetrically. 500 μl portion of each sample were dialyzed through a Centricon filter with a molecular weight cut-off of […]. After washing with 3 volumes of assay buffer, isopeptidase activity was measured in the […].

ubiquitin isopeptidases [5] = assay: In vitro isopeptidase activity in HCT 116 lysates, Ub-PEST; assay type: biochemical, human; details: HCT 116 lysates, 45 min
HCT 116 +/+ cells [6] = test system: HCT 116 +/+ cells
Experimental: as §1, §2

HCT 116 −/− cells [7] = test system: HCT 116 −/− cells
Experimental: as §1, §2

HCT 116 +/+ cells [8] = details: Mullally et al., University of Utah, 2003; read-out: EC50 in competent HCT 116 cells; cited from earlier work
[9] = in vivo; cited from earlier work

Structure (SMILES): C=C1C(=O)C2=CC1CCC(=O)C1(C)CCC(OC(C)=O)C(C)(C)C1CC2O (stereo not shown) [NSC-302979, shikoccin]
- effect on Ub-PEST degradation, control substances (ubiquitin isopeptidases [1]): expected inhibition of Ub-PEST degradation
- EC50 (RKO cells): 1.8 ± 0.1 µM
- p53 dependence in NCI 60 cell line cancer screening data ([2]; analysis according to O'Connor et al., 1997): act independently of p53
- LC50 ([2]; mean of 18 cell lines with wild type p53): 54 µM
- EC50 (HCT 116 −/− cells [3]): 3.2 ± 0.2 µM

Structure (SMILES): CCCCC[C@H](O)C/C=C1/C(=O)C=C[C@@H]1C/C=C\CCCC(=O)O [Δ12-PGJ2, Δ12-prostaglandin J2]
- isopeptidase inhibition in treated cell lysates, pre-dialysis (ubiquitin isopeptidases [4]; 1 hour, 25° C.): inhibited isopeptidase activity in treated cell lysates
- reversibility of isopeptidase inhibition, post-dialysis (ubiquitin isopeptidases [4]; dialysis with 3 volumes of assay buffer): could not be reversed by dialysis
- concentration at which inhibition of Ub-PEST degradation is initially observed (ubiquitin isopeptidases [5]): 60 µM
- concentration of complete (total) inhibition of Ub-PEST degradation (ubiquitin isopeptidases [5]): 200 µM
- EC50 (HCT 116 +/+ cells [6]): 3.6 ± 0.3 µM
- EC50 (HCT 116 −/− cells [7]): 4.1 ± 0.1 µM
- EC50 (HCT 116 +/+ cells [8]): 3.6 µM
- cross-resistance with cisplatin and adriamycin [9]: little cross-resistance with cisplatin and adriamycin
